Assay results reported in publication PMC12199309, “Isolation, structural elucidation, and integrated biological and computational evaluation of antidiabetic labdane diterpenes from Curcuma zedoaria rhizomes” (RSC Advances, 2025).
Read-outs that look alike come from different tables or passages of the source.

Columns and labels:
[1] = target: T1, α-Glucosidase (EC 3.2.1.20) (Saccharomyces cerevisiae, UniProt P53341); assay: biochemical; details: for inhibition at 1 µM / inhibition at 2.5 µM / inhibition at 5 µM / inhibition at 10 µM / inhibition at 25 µM / inhibition at 50 µM / inhibition at 100 µM: read-out: Inhibition rate (%)
T1 construct: purchased Sigma Chemical Co. (St. Louis, MO, USA)
Description: Five isolated compounds were examined to assess their inhibitory effect on α-glucosidase at concentrations ranging from 1 to 100 μM. […]
Optical values were conducted on a Shimadzu UV-1800 spectrophotometer (Shimadzu Pte., Ltd, Singapore). IR spectra were measured with a Shimadzu IR-408 infrared spectrometer (Shimadzu Pte., Ltd, Singapore). NMR spectra were acquired on a Bruker Avance III 500 spectrometer Bruker BioSpin AG, Bangkok, (Thailand), with chemical shifts (δ) referenced to deuterated solvents. HR-ESI-MS data were obtained on Bruker micrOTOFQII mass spectrometer (Bruker Singapore Pte., Ltd, Singapore). Column chromatography utilized silica gel 60 (0.06–0.2 mm; Scharlau, Barcelona, Spain) and LiChroprep RP-18 (40–63 μm; Merck KGaA, Darmstadt, Germany). Thin-layer chromatography (TLC) employed Kieselgel 60 F254 or RP-18 F254 plates from Merck KGaA (Darmstadt, Germany). α-Glucosidase (EC 3.2.1.20), derived from Saccharomyces cerevisiae (750 UN), along with p-nitrophenyl-α-D-glucopyranoside, was procured from Sigma Chemical Co. (St. Louis, MO, USA). […] All other chemicals and solvents were of the highest purity or analytical grade.
The inhibitory activity of α-glucosidase was assessed using a modified method based on Kurihara et al.[37] The reaction was initiated by adding 50 μL of 1.5 mM p-nitrophenyl-α-D-glucopyranoside and 50 μL of 0.1 U mL^−1 α-glucosidase in 0.01 M phosphate buffer (pH 7.0) to 625 μL of sample solution. The reaction was conducted at 37 °C for 30 minutes and terminated with 0.1 M Na2CO3. Enzymatic activity was quantified by measuring absorbance at a wavelength of 401 nm. One unit of α-glucosidase activity was defined as the amount of enzyme that liberates […] p-nitrophenol per minute. The IC50 value represented the inhibitor concentration that suppressed 50% of enzyme activity.

[2] = target: T1, α-Glucosidase (EC 3.2.1.20); assay: biochemical; details: read-out: Inhibition rate (%)
[3] = α-glucosidase inhibition, 37 °C, 30 minutes, pH 7.0, read-out: IC50

T1 sequence (P53341 whole entry): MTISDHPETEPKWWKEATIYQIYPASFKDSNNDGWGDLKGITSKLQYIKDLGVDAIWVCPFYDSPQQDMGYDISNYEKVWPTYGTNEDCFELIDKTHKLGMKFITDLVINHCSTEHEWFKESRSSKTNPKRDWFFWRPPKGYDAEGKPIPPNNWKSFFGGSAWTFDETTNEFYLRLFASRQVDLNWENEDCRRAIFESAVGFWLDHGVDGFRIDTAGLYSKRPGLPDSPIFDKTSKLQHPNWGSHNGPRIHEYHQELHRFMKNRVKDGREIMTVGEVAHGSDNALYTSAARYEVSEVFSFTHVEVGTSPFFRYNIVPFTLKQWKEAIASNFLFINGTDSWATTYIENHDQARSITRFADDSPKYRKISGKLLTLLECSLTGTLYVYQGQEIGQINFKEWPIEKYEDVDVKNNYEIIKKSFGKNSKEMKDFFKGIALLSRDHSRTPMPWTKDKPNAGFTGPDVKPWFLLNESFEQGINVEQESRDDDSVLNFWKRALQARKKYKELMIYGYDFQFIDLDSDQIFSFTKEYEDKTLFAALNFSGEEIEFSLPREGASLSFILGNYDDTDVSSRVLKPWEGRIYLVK

Row | SMILES | inhibition at 1 µM [1] [%] | inhibition at 2.5 µM [1] [%] | inhibition at 5 µM [1] [%] | inhibition at 10 µM [1] [%] | IC50 [1, 3] [µM] | IC50 [1] [µM] | inhibition at 25 µM [1] [%] | inhibition at 50 µM [1] [%] | inhibition at 100 µM [1] [%] | inhibition at 250 µM [2] [%]
1 | C=C1CC[C@H]2C(C)(C)CCC[C@]2(C)[C@H]1/C=C/C1=C(O)COC1=O [CZ3, zerumin] | 6.9 ± 4 | 20.8 ± 3.6 | 35.2 ± 1.9 | 73.4 ± 2.3 | 6.2 |  |  |  |  | 
2 | C=C1CCC2C(C)(C)CCCC2(C)C1C=CC(=O)O (centres unmarked) [CZ5, (E)-14,15,16-trinorlabda-8(17),11-dien-13-oic acid] |  |  |  | 3.5 ± 3.6 |  | 37.6 | 16.6 ± 3.8 | 75.8 ± 4.4 | 99.8 ± 0.2 | 
3 | C[C@H]1O[C@H](O[C@H]2[C@H](O)[C@@H](O)[C@@H](O[C@H]3[C@H](O)[C@@H](O)C(O)O[C@@H]3CO)O[C@@H]2CO)[C@H](O)[C@@H](O)[C@@H]1N[C@H]1C=C(CO)[C@@H](O)[C@H](O)[C@H]1O (some centres unmarked) [PC, acarbose, reference compound] |  |  |  |  |  |  | 8.6 ± 1.1 | 19.7 ± 1.3 | 32.1 ± 1.7 | 66 ± 1.2
4 | C=C1CCC2C(C)(C)CCCC2(C)C1CC=C(CO)C(=O)O (centres unmarked) [CZ2, (E)-14-hydroxy-15-norlabda-8(17),12-dien-16-oic acid] |  |  |  | 24.6 ± 4.1 |  | 25.5 | 46.3 ± 3.1 | 72.4 ± 2 | 99.1 ± 2 | 
5 | C=C1CC[C@H]2C(C)(C)CCC[C@]2(C)[C@H]1CCC1=CC(O)OC1=O (some centres unmarked) [CZ4, coronarin C] | 13.7 ± 5.4 | 34 ± 0.9 | 81 ± 1.7 | 95.4 ± 1.5 | 3 |  |  |  |  | 
6 | C=C1CCC2C(C)(C)CCCC2(C)C1CC=C(COC(C)=O)C(=O)O (centres unmarked) [CZ1, zedolabdin A] |  |  |  | 29.5 ± 1.8 |  | 14.1 | 81.4 ± 0.5 | 96.2 ± 0.4 | 98.8 ± 0.4 | 
